Measurements published in PMC7297445, “Pharmacokinetic/Pharmacodynamic Determination and Preclinical Pharmacokinetics of the β-Lactamase Inhibitor ETX1317 and Its Orally Available Prodrug ETX0282” (ACS Infectious Diseases, 2020).
Converted amounts (≈) assume the structure as drawn.

Tests used:
K. pneumoniae ARC5118 [1] = assay: MIC, broth microdilution (CLSI); type: cell-based
Description: (§1) MICs were determined utilizing a 1:2 ratio of cefpodoxime:ETX1317. […] The isolates utilized in the present study (Table 1) were broadly insensitive to CPD, presumably due to the presence of ESBLs and carbapenemases expressed in these strains. The addition of ETX1317 restored CPD activity to ≤1 μg/mL across all the tested isolates.
(§2) The MIC of each isolate was determined using the broth microdilution method following CLSI guidelines of document M07-A7 (CLSI M07-A7).

K. pneumoniae ARC4488 = assay: MIC, broth microdilution (CLSI); type: cell-based
Description: as §1, §2

K. pneumoniae ARC4420 = assay: MIC, broth microdilution (CLSI); type: cell-based; settings: Klebsiella pneumoniae, combination at 1:2 ratio cefpodoxime:ETX1317, MIC of CPD
Description: as §1, §2

E. coli NMC101 [2] = assay: MIC, broth microdilution (CLSI); type: cell-based; settings: Escherichia coli, combination at 1:2 ratio cefpodoxime:ETX1317, MIC of CPD
Description: as §1, §2

E. coli ARC4419 [3] = assay: MIC, broth microdilution (CLSI); type: cell-based; settings: Escherichia coli, combination at 1:2 ratio cefpodoxime:ETX1317, MIC of CPD
Description: as §1, §2

K. pneumoniae ARC4486 = assay: MIC, broth microdilution (CLSI); type: cell-based; settings: Klebsiella pneumoniae, combination at 1:2 ratio cefpodoxime:ETX1317, MIC of CPD
Description: as §1, §2

E. coli ARC2687 [4] = assay: MIC, broth microdilution (CLSI); type: cell-based
Description: as §1, §2

Plasma protein binding = type: in vitro ADME, mouse; settings: mouse plasma; read-out: percent unbound
Description: Plasma protein binding was determined by rapid equilibrium dialysis. Plasma was freshly prepared from blood samples drawn in to EDTA (anticoagulant) containing tubes. Plasma was prepared using a table-top centrifuge and spun per instruction of the tube manufacturer and specifications (Beckton, Dickinson and Company, Franklin Lakes, NJ) and placed on ice prior to use.
Pooled plasma samples were centrifuged at 2000 rpm (approximately 1400g) for 15 min at 4 °C to remove debris. Approximately 90% of the clear supernatant fraction was transferred to a separate tube. Samples (500 μL) were then spiked with a 100× stock solution 100 μM, 0.5 mM, and 10 mM ETX1317 in DMSO respectively for 1, 5, and 100 μM final concentrations, transferred to the top of the filter chambers, and allowed to equilibrate for 15 min prior to centrifugation. The filtrate tubes were centrifuged at 14000g for 15 min at 4 °C. Next, 50 μL of the filtrate was precipitated with 300 μL of acetonitrile containing 250 ng/mL of carbutamide as the internal standard and the samples were analyzed by LC/MS/MS analysis.

[5] = test system: E. coli strain (ATCC 25922); assay: MIC; type: cell-based; settings: Escherichia coli, ATCC25922; susceptible strain
Description: All in vivo efficacy studies were supported with PK of ETX1317 and CPD following oral administration of ETX0282 and CPDP. For the purposes of understanding the exposure-PD response relationship, total systemic concentrations of ETX1317 and cefpodoxime were normalized to unbound drug levels after accounting for protein binding with percent unbound estimates of 93% and 66%, respectively, in mouse plasma (Table S2). An in vivo dose range study with CPDP administered alone against a susceptible E. coli strain (ATCC 25922, CPD MIC = 0.5 μg/mL) was completed initially in a murine neutropenic thigh model to confirm its PK/PD target. In this study a 50 mg/kg oral dose of CPDP administered q6h was consistent with achieving 1–log kill over 24 h. […] Oral exposure was generally dose proportional to 50 mg/kg; however, it became less than dose proportional at ≥200 mg/kg.
as §2

[6] = cited from earlier work
[7] = test system: Enterobacteriaceae isolates; assay: Hollow-fiber and chemostat models, strains combined; type: cell-based, E. coli, K. pneumoniae; settings: infused alone, both models
Description: The PK/PD driver of ETX1317 was assessed in the presence of CPD in both hollow-fiber[28]−[31] and chemostat[32]in vitro infection model systems. In all cases, CPD was administered q12h via a 2 h infusion and eliminated with a 2 h half-life, with the concentration of drug exceeding the MIC (the MIC of CPD in the presence of ETX1317 at a 1:2 ratio) for 50% of the dosing interval for each strain. Representative Emax plots are shown graphically for Escherichia coli ARC2687 in the hollow-fiber model and Klebsiella pneumoniae ARC4420 in the chemostat system (Figure 2). […] This could partially be attributed to the distribution of the concentration ranges utilized for the hollow-fiber infection model (HFIM) where most of the data scatter occurred in the efficacious dose range for lower MIC strains. It is important to note that initial evaluation of K. pneumoniae ARC4420 and ARC5118 was completed in the HFIM but rapid degradation of CPD, presumably through accumulation of β-lactamases in the extra-capillary space of the cartridge precluded a reliable assessment of the PK/PD driver with these strains in this model.[32] […] In both the HFIM and chemostat models the optimum critical threshold of ETX1317 was established through iterative Emax fitting of a range of ETX1317 concentrations from 0.5× to 2× the CPD:ETX1317 MIC value. In the HFIM, %Time > ETX1317 CT of 2× MIC provided the highest correlation to observed activity which appeared to be independent to the apparent intrinsic activity of ETX1317 (as reflected by ETX1317 MICBLI of K. pneumoniae ARC4486 vs ARC4488). […] In both models CPD infused alone mimicked vehicle control as expected with similar growth of +2 to 4 log10 CFU/mL.
PK/PD-derived exposure targets for BLIs have utilized various approaches for clinical dose setting. The use of a singular critical threshold value independent of MIC has been used for recent BL/BLI combinations such as ceftazidime/avibactam[34] aztreonam/avibactam,[35] but this has been problematic to correlate activity across a broad range of MICs. More recent work with ceftolozane/tazobactam[36] and other BLI combinations[37],[38] considers a critical threshold value that varies proportionally to the MIC value. […] Convergence of the data to a threshold value related to MIC simplifies dose setting and, in this case, appears to be consistent across a broad range of susceptibility (0.125–1 μg/mL).
Dose range and dose fractionation were performed in hollow-fiber infection model (HFIM) and chemostat (one-compartment) in vitro infection model. […] CPD concentrations were targeted to achieve exposure of ∼50%Time > MIC determined in the presence of ETX1317. […] Bacterial burden (CFU/mL) was serially assessed by sampling (500 μL) from the extra-capillary space of the HFIM cartridge at predetermined time points. […]

E. coli NMC101 [8] = assay: Murine neutropenic thigh infection model; type: in vivo, mouse; settings: 600 mg/kg s.c./q6h
Description: (§3) To further understand whether this in vitro activity translated to in vivo efficacy, an additional neutropenic thigh study was conducted in mice with increasing doses of ETX0282 alone vs E. coli NMC101 (ETX1317 MICBLI = 1 μg/mL) and ARC4419 (ETX1317 MICBLI = 0.25 μg/mL). […] Despite the significant exposure of ETX1317, a 200 mg/kg q6h dose of ETX0282 alone was ineffective for both strains (Table 6).
(§4) In vivo neutropenic infection models in the mouse were conducted as previously described.[48],[49] All procedures were performed to Entasis approved IACUC policies and guidelines as well as OLAW standards. Briefly, Female CD-1 mice (20–22 g, Charles River Laboratories) were acclimated for 5 days prior to start of study. Animals were housed 3 per cage with free access to food and water. Mice were rendered neutropenic via two doses of cyclophosphamide on days −4 and −1 with 150 mg/kg and 100 mg/kg delivered intraperitoneally in a dose volume of 10 mL/kg, respectively.[48]
(§5) Enterobacteriaceae isolates ARC2687, ARC4488, ARC5118, NMC101, and ARC4419 were prepared for infection from an overnight plate culture. A portion of the plate was resuspended in sterile saline and adjusted to an OD of 0.1 at 625 nm. The adjusted bacterial suspension was further diluted to target an infecting inoculum of approximately 5.0 × 10^6–1.0 × 10^7 CFU/mouse. The actual inoculum size varied between 5.5 × 10^6–1.6 × 10^6 CFU/thigh and administered via intramuscular injection of (100 μL). Plate counts of the inoculum were performed to confirm inoculum concentration and treatment was initiated 2 h after bacterial challenge.
(§6) ETX0282 and CPDP were formulated in 0.5% HPMC/0.1% Tween 80 suspension. meropenem (utilized as a positive control) was solubilized in water for injection. All studies utilized a meropenem dosed at 600 mg/kg q6h subcutaneously as positive control against meropenem sensitive isolates (MIC ≤ 2 μg/mL) and as a negative control against meropenem resistant isolates. For dose arms utilizing a combination of ETX0282 and CPDP, both agents were reconstituted in the same vehicle. All dose concentrations were adjusted to deliver targeted mg/kg doses within a dose volume of 10 mL/kg. Formulation potency was verified by LC/MS/MS.
(§7) ETX0282 and CPDP were administered via q6h dose intervals in order to achieve targeted unbound exposures. At 24 h post initiation of therapy, animals were euthanized, tissue samples aseptically collected and homogenized. Bacterial colony enumeration of tissue homogenate was performed by serial dilution on TSA plates which were incubated overnight at 35 °C prior to colony (CFU) counting.

E. coli ARC4419 [9] = assay: Murine neutropenic thigh infection model; type: in vivo, mouse; settings: 600 mg/kg s.c./q6h
Description: as §3, §4, §5, §6, §7

K. pneumoniae ARC5118 [10] = assay: Murine neutropenic thigh infection model; type: in vivo, mouse
Description: as §4, §5, §6, §7

E. coli ARC2687 [11] = assay: Murine neutropenic thigh infection model; type: in vivo, mouse
Description: as §4, §5, §6, §7

[12] = q6h, 24 h, cidal = ≥1 log10 CFU/g reduction

In the case of `COCC1=C(C(=O)O)N2C(=O)[C@@H](NC(=O)/C(=N\OC)c3csc(N)n3)[C@H]2SC1` [cefpodoxime], the MIC (K. pneumoniae ARC5118 [1]; Klebsiella pneumoniae, ARC5118, combination at 1:2 ratio cefpodoxime:ETX1317, MIC of CPD) is reported as over 64 µg/mL, the MIC (K. pneumoniae ARC4488; Klebsiella pneumoniae, ARC4488, combination at 1:2 ratio cefpodoxime:ETX1317, MIC of CPD) is reported as over 64 µg/mL and the MIC (K. pneumoniae ARC4420) is reported as over 64 µg/mL. It also gave an MIC (E. coli NMC101 [2]) of over 64 µg/mL, an MIC (E. coli ARC4419 [3]) of 64 µg/mL and an MIC (K. pneumoniae ARC4486) of over 64 µg/mL. For the same compound, the MIC (E. coli ARC2687 [4]; Escherichia coli, ARC2687, combination at 1:2 ratio cefpodoxime:ETX1317, MIC of CPD) was over 64 µg/mL, the fraction unbound at 15 min (Plasma protein binding) was 0.66 and the MIC [5] was 0.5 µg/mL (≈ 1.17 µM). The “% of dosing interval with mean unbound concentrations exceeding at least 0.5 μg/mL” value ([6]; 400 mg q12h (800 mg/day)) was “greater than 50%”, the half-life in humans ([6]; humans) was 2 h and the F% ([6]; oral proxetil ester prodrug, top dose 400 mg q12h) was “≈ 50%”. For the same compound, the growth [7] was “+2 to 4 log10 CFU/mL”.
In the case of `C[C@@H](O)[C@H]1C(=O)N2C(C(=O)O)=C(S[C@@H]3CN[C@H](C(=O)N(C)C)C3)[C@H](C)[C@H]12` [meropenem], the susceptibility to meropenem (K. pneumoniae ARC5118 [1]; KPC-producing isolate) is reported as “resistant to meropenem”, the susceptibility to meropenem (K. pneumoniae ARC4488; ESBL producer) is reported as “maintain susceptibility to meropenem” and the susceptibility to meropenem (E. coli ARC2687 [4]; ESBL producer) is reported as “maintain susceptibility to meropenem”. For the same compound, the “log10 CFU/g thigh change 24 h post therapy initiation” value (E. coli NMC101 [8]) was “–1.36 log10 CFU/g”, the “log10 CFU/g thigh change 24 h post therapy initiation” value (E. coli ARC4419 [9]) was “–2.19 log10 CFU/g” and the “log10 CFU/g thigh change 24 h post therapy initiation” value (K. pneumoniae ARC5118 [10]; 600 mg/kg s.c./q6h) was “+2.04 log10 CFU/g”. The “in vivo efficacy in words” value (K. pneumoniae ARC5118 [10]; [12]) was “not against K. pneumoniae ARC5118”, the “log10 CFU/g thigh change 24 h post therapy initiation” value (E. coli ARC2687 [11]; 600 mg/kg s.c./q6h) was “–1.46 log10 CFU/g” and the “in vivo efficacy in words” value (E. coli ARC2687 [11]; [12]) was “cidal activity”.
